Measurements published in patent US20060216333A1, “Methods related to the treatment of mucosal associated conditions” (priority 2003, published 2006).

Columns and labels:
Type in all cases: in vivo, rat
TNF = assay: Serum and vaginal tissue TNF after intravaginal dosing of rats (ELISA); conditions: for TNF Tissue: vaginal tissue, per 200 mg
Experimental: (§1) In the examples below the serum and intravaginal cytokine data were obtained using the following general test method.
(§2) Rats were acclimated to collars (Lomir Biomedical, Malone, N.Y.) around the neck on two consecutive days prior to actual dosing. Rats were collared to prevent removal of the device and ingestion of the drug. Animals were then dosed intravaginally with a removable device or with […] of cream. Single dosed rats received one intravaginal dose with samples collected at various times following dosing. Blood was collected by cardiac puncture. Blood was allowed to clot briefly at room temperature and serum was separated from the clot via centrifugation. The serum was stored at −20° C. until it was analyzed for cytokine concentrations.
(§3) Following blood collection, the rats were euthanized and their vaginal tract, including the cervix, was then removed and the tissue was weighed, placed in a sealed 1.8 mL cryovial and flash frozen in liquid nitrogen. The frozen vaginal tissue sample was then suspended in 1.0 mL of RPMI medium (Celox, St. Paul, Minn.) containing 10% fetal bovine serum (Atlas, Fort Collins, Colo.), 2 mM L-glutamine, penicillin/streptomycin and 2-mercaptoethanol (RPMI complete) combined with a protease inhibitor cocktail set III (Calbiochem, San Diego, Calif.). The tissue was homogenized using a Tissue Tearor (Biospec Products, Bartlesville, Okla.) for approximately one minute. The tissue suspension was then centrifuged at 2000 rpm for 10 minutes under refrigeration to pellet the debris, and the supernatant collected and stored at −20° C. until analyzed for cytokine concentrations.
(§4) ELISA kits for rat TNF were purchased from BD PharMingen (San Diego, Calif.) and the rat MCP-1 ELISA kits were purchased from BioSource Intl. (Camarillo, Calif.).
(§5) Both kits were performed according to manufacturer's specifications. Results for both TNF and MCP-1 are expressed in pg/mL and are normalized per 200 mg of tissue. […] “Post dosing” means after treatment initiation. For example, if a device was inserted a time 0 hours and removed at 2 hours and cytokines were assayed at 4 hours, then the cytokines were assayed at 4 hours post dosing.

MCP-1 = assay: Serum and vaginal tissue MCP-1 after intravaginal dosing of rats (ELISA); conditions: for MCP-1 Tissue: vaginal tissue, per 200 mg
Experimental: as §1, §2, §3, §4, §5

rats = assay: Histologic examination of uterus, cervix, vagina, vulva and perineal skin, Example 11; conditions: 1% device removed after 2 hours
Experimental: Cotton devices were prepared as described in Example 1. The devices were saturated with either a solution containing 1% by weight of IRM 2 in 50/50 w/w isostearic acid/isopropyl myristate or with 50/50 w/w isostearic acid/isopropyl myristate (vehicle). Three groups of rats were dosed intravaginally 2 times a week for 3 weeks (Tuesday, Friday, Monday, Thursday, Monday, Thursday) with 1% IRM 2 device, vehicle device or with 1% IRM 2 cream. The devices were removed after 2 hours. The cream was left in place. Cytokines were assayed 4 hours post dosing of the final dose. Three more groups of rats were dosed intravaginally with 1% IRM 2 device, vehicle device or with 1% ERM 2 cream. The devices were removed after 2 hours. The cream was left in place. Cytokines were assayed 4 hours post dosing. […] The results are shown in the table below where each value is the mean value for 3 rats.
Groups of 3 rats were treated as described in Example 8 and necropsied 22 hours after the devices were removed. Uterus, cervix, vagina, vulva and perineal skin were collected, fixed and processed routinely for histologic examination.

[1] = 4 hours post dosing, 1% in 50/50 ISA/IPM, cotton pellet device removed after 2 hours, Example 6
[2] = 4 hours post dosing, device 1.0% in 50/50 ISA/IPM, removed after 15 min, Example 4
[3] = 4 hours post dosing, device 1.0% in 50/50 ISA/IPM, removed after 30 min, Example 4
[4] = 4 hours post dosing, device 1.0% in 50/50 ISA/IPM, removed after 60 min, Example 4
[5] = 4 hours post dosing, device 1.0% in 50/50 ISA/IPM, removed after 120 min, Example 4
[6] = 4 hours post dosing, single dose, 1% in 50/50 ISA/IPM cotton device removed after 2 hours, Example 8
[7] = 4 hours post final dose, multiple dose, 2 times a week for 3 weeks, 1% in 50/50 ISA/IPM cotton device removed after 2 hours, Example 8
[8] = Multiple dose (2 times a week for 3 weeks)

Cc1nc2c(N)nc3ccccc3c2n1CC(C)(C)O [IRM 2, 4-amino-α,α,2-trimethyl-1H-imidazo[4,5-c]quinoline-1-ethanol]
TNF Serum (TNF; [1]): 4 pg/mL
TNF Serum (TNF; [2]): 0 pg/mL
TNF Serum (TNF; [3]): 0 pg/mL
TNF Serum (TNF; [4]): 0 pg/mL
TNF Serum (TNF; [5]): 0 pg/mL
TNF Serum (TNF; [6]): 0 pg/mL
TNF Serum (TNF; [7]): 0 pg/mL
TNF Tissue (TNF; [1]): 384 pg/mL
TNF Tissue (TNF; [2]): 493 pg/mL
TNF Tissue (TNF; [3]): 390 pg/mL
TNF Tissue (TNF; [4]): 537 pg/mL
TNF Tissue (TNF; [5]): 716 pg/mL
TNF Tissue (TNF; [6]): 888 pg/mL
TNF Tissue (TNF; [7]): 1075 pg/mL
MCP-1 Serum (MCP-1; [1]): 114 pg/mL
MCP-1 Serum (MCP-1; [2]): 68 pg/mL
MCP-1 Serum (MCP-1; [3]): 83 pg/mL
MCP-1 Serum (MCP-1; [4]): 118 pg/mL
MCP-1 Serum (MCP-1; [5]): 92 pg/mL
MCP-1 Serum (MCP-1; [6]): 59 pg/mL
MCP-1 Serum (MCP-1; [7]): 87 pg/mL
MCP-1 Tissue (MCP-1; [1]): 1016 pg/mL
MCP-1 Tissue (MCP-1; [2]): 433 pg/mL
MCP-1 Tissue (MCP-1; [3]): 454 pg/mL
MCP-1 Tissue (MCP-1; [4]): 889 pg/mL
MCP-1 Tissue (MCP-1; [5]): 2462 pg/mL
MCP-1 Tissue (MCP-1; [6]): 1390 pg/mL
MCP-1 Tissue (MCP-1; [7]): 2353 pg/mL
Lesion incidence: Cervix, Cavitation (epithelium) (rats; [8]): 0/3
Lesion incidence: Cervix, Inflammation (rats; [8]): 1/3
Lesion incidence: Perineal skin, Exudate on surface, epidermis (rats; [8]): 0/3
Lesion incidence: Perineal skin, Inflammation, superficial dermis (rats; [8]): 1/3
Lesion incidence: Perineal skin, Spongiosis, epidermis (rats; [8]): 1/3
Lesion incidence: Perineal skin, Subcorneal pustules, epidermis (rats; [8]): 1/3
Lesion incidence: Vagina, Edema, lamina propria (rats; [8]): 0/3
Lesion incidence: Vagina, Inflammation, lamina propria (rats; [8]): 3/3
Lesion incidence: Vulva, Edema, lamina propria (rats; [8]): 1/3
Lesion incidence: Vulva, Erosion (rats; [8]): 0/3
Lesion incidence: Vulva, Inflammation, lamina propria (rats; [8]): 3/3
Lesion incidence: Vulva, Intraepithelial pustules (rats; [8]): 0/3
Lesion incidence: Vulva, Necrosis, epithelium (rats; [8]): 1/3
Lesion incidence: Vulva, Spongiosis, epithelium (rats; [8]): 1/3
Lesion incidence: Vulva, Ulceration (rats; [8]): 0/3
Lesion incidence: Cervix, Cavitation (epithelium) (rats; Single dose): 0/3
Lesion incidence: Cervix, Inflammation (rats; Single dose): 0/3
Lesion incidence: Perineal skin, Exudate on surface, epidermis (rats; Single dose): 0/3
Lesion incidence: Perineal skin, Inflammation, superficial dermis (rats; Single dose): 1/3
Lesion incidence: Perineal skin, Spongiosis, epidermis (rats; Single dose): 0/3
Lesion incidence: Perineal skin, Subcorneal pustules, epidermis (rats; Single dose): 0/3
Lesion incidence: Vagina, Edema, lamina propria (rats; Single dose): 0/3
Lesion incidence: Vagina, Inflammation, lamina propria (rats; Single dose): 3/3
Lesion incidence: Vulva, Edema, lamina propria (rats; Single dose): 0/3
Lesion incidence: Vulva, Erosion (rats; Single dose): 0/3
Lesion incidence: Vulva, Inflammation, lamina propria (rats; Single dose): 3/3
Lesion incidence: Vulva, Intraepithelial pustules (rats; Single dose): 1/3
Lesion incidence: Vulva, Necrosis, epithelium (rats; Single dose): 1/3
Lesion incidence: Vulva, Spongiosis, epithelium (rats; Single dose): 0/3
Lesion incidence: Vulva, Ulceration (rats; Single dose): 0/3
